Test results published in doi:10.1101/2025.06.07.658458v1, “Discovery of excited state proton transfer in flavin-based fluorescent protein with large Stokes shift” (biorxiv, 2025).

What was measured:
Type in all cases: binding
[1] = target: T1, CagFbFP (Q89E variant: LSSFbFP) (Chloroflexus aggregans, UniProt B8GAY9, C85A/Q89E); assay: melting curve by flavin fluorescence in real-time PCR cycler; conditions: Tm of the complex, not a shift
T1 construct: gene Cagg_3753; C85A background inferred from printed I52V-A85Q and known biology
T1 sequence (B8GAY9 47-153 C85A/Q89E): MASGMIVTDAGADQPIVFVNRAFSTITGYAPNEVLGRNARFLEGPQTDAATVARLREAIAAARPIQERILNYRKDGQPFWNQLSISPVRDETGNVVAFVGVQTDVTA

[2] = target: T1, CagFbFP (Q89E variant: LSSFbFP); assay: chromophore dissociation constant measurement, details in cited reference; crystal structure of complex
[3] = target: T1, CagFbFP (Q89E variant: LSSFbFP); assay: melting curve by flavin fluorescence in real-time PCR cycler; conditions: Tm of the complex, not a shift; remark: listed apart in the source

## Cc1cc2nc3c(=O)[nH]c(=O)nc-3n(C[C@H](O)[C@H](O)[C@H](O)COP(=O)(O)O)c2cc1C [FMN, flavin mononucleotide]
[1]
  denaturation temperature: 81 °C
[2]
  Kd: 360 ± 50 nM

## Cc1cc2nc3[nH]c(=O)[nH]c(=O)c3nc2cc1C [LC, lumichrome]
[3]
  thermal stability: 58 °C
[2]
  Kd: 900 ± 300 nM
